In patent US8586619B2, “Agents of calcium ion channel modulators” (VM Therapeutics LLC, priority 2007, dated 2013):

Test system: Formalin induced pain in rat animal models of hyperalgesia
Assay: Rat Formalin Paw Test (in vivo assay)
Conditions: flinches, shown in FIGS. 1 and 2
Method: Rat Formalin Paw Test (in Vivo Assay): Compounds were assessed for their ability to inhibit the behavioral response evoked by an injection of formalin (50 μl of 5% formalin). A metal band was affixed to the left hind paw of male Holtzman rats (225-250 g, Harlan Industries, Indianapolis Ind.) and each rat was conditioned to the band for 60 min within a plastic cylinder (15 cm diameter). Rats were dosed with either vehicle, positive control compound or a test compound either before (local) or after (systemic) formalin challenge. For local administration, compounds were prepared in either a 10:7.5 vehicle of saline (in mL) and (D)- or (L)-Tartaric acid (in mg), or a 1:1:6 vehicle of DMA (N,N-Dimethylacetamide), Tween 80 and saline, and injected […] into the dorsal surface of the right hind paw of the rat 60 min prior to formalin. The number of flinches was counted continuously for 60 min using an automated nociception analyzer (UCSD Anesthesiology Research, San Diego, Calif.). Statistical significance was determined by comparing the total flinches detected in the early (0-10 min, Phase I) and late (11-60 min) phase with an unpaired t-test. […]

## CC1CCCC(NC(=O)C2N(C(C)CCc3ccccc3)C(=O)C3C(C(=O)Nc4cc(Cl)cc(Cl)c4)C4C=CC32O4)C1C (centres unmarked) [Compound 52, 3-(1-Methyl-3-phenyl-propyl)-4-oxo-10-oxa-3-aza-tricyclo[5.2.1.0^1,5]dec-8-ene-2,6-dicarboxylic acid 2-[(3,5-dichloro-phenyl)-amide]6-[(2,3-dimethyl-cyclohexyl)-amide]]
  reduction of Formalin induced pain: reduction of Formalin induced pain

## O=C(c1ccc(F)cc1)C1CCN(CCn2c(=O)[nH]c3ccccc3c2=O)CC1 [Compound 401, 3-{2-[4-(4-Fluoro-benzoyl)-piperidin-1-yl]-ethyl}-1H-quinazoline-2,4-dione]
  reduction of Formalin induced pain: reduction of Formalin induced pain
